# Laboratory results from patent publication US8318973B2, “Functionalized sinapic acid and methyl sinapate” (Bezwada Biomedical, LLC, priority 2005, dated 2012).
# Assay: In vitro hydrolysis of functionalized phenolics in pH 7.4 buffer at reflux
# Type: physicochemical
# Conditions: 500 mg compound in 50 mL pH 7.4 buffer, reflux temperature (100° C.), monitored by TLC
# Procedure: In Vitro Hydrolysis of Functionalized Phenolics
# A few selected compounds were examined for the rate of hydrolysis by conducting in vitro hydrolysis studies at reflux temperature (100° C.). For each experiment, 500 mg of a functionalized compound and 50 mL of pH 7.4 buffer solution (purchased from Aldrich chemical company) were charged into a 100 mL round bottom flask fitted with a condenser and the contents were refluxed. In vitro hydrolysis of the functionalized phenolic was monitored by thin layer chromatography (TLC) using corresponding starting material (original amino acid) as a control. In vitro hydrolysis was continued at reflux until the functionalized molecule hydrolyzed to the starting compound.
row,time in which the functionalized compound was hydrolyzed to the starting compound,SMILES
1,26.5 h,"COC(=O)COC(=O)COc1ccc(C(=O)OCC(=O)OC)cc1 [Example 77, 4-Methoxycarbonylmethoxycarbonylmethoxy-benzoic acid methoxycarbonyl methyl ester]"
2,33.0 h,"COC(=O)COC(=O)c1ccc(OCC(=O)OC)cc1 [Example 78, 4-Methoxycarbonylmethoxy-benzoic acid methoxycarbonylmethyl ester]"
3,eight,"COC(=O)COC(=O)c1ccccc1OCC(=O)OC [Example 79, 2-Methoxycarbonylmethoxy-benzoic acid methoxycarbonylmethyl ester]"
4,two,"COC(=O)COC(=O)COc1ccccc1C(=O)OCC(=O)OC [Example 81, 2-Methoxycarbonylmethoxycarbonylmethoxy-benzoic acid methoxycarbonyl methyl ester]"
5,one,"COC(=O)COC(=O)COc1ccc(OCC(=O)OCC(=O)OC)cc1 [Example 84, (4-Methoxycarbonylmethoxycarbonylmethoxy-phenoxy)-acetic acid methoxycarbonyl methyl ester]"
6,four,"COC(=O)COC(=O)COc1ccc2cc(C(C)C(=O)OCC(=O)OC)ccc2c1 (stereo not shown) [Example 90, 2-(6-Methoxycarbonylmethoxycarbonylmethoxy-naphthalen-2-yl)-propionic acid Methoxy Carbonylmethyl ester]"
7,four,"COC(=O)COC(=O)C(C)c1ccc2cc(OCC(=O)OC)ccc2c1 (stereo not shown) [Example 92, 2-(6-Methoxycarbonylmethoxy-naphthalen-2-yl)-propionic acid Methoxy Carbonyl methyl ester]"
8,three,"COC(=O)COC(=O)COc1ccc(N)cc1 [Example 96, (4-Amino-phenoxy)-acetic acid methoxycarbonylmethyl ester]"
9,ten,"COC(=O)COC(=O)COc1ccc(-c2coc3cc(OCC(=O)OCC(=O)OC)ccc3c2=O)cc1 [Example 98, [4-(7-Methoxycarbonylmethoxycarbonylmethoxy-4-oxo-4H-chromen-3-yl)-phenoxy]-acetic acid methoxycarbonylmethyl ester]"

row,SMILES,time in which the functionalized compound was hydrolyzed to the starting compound
1,"COC(=O)C(C)OC(=O)COc1ccc(OCC(=O)OC(C)C(=O)OC)cc1 (stereo not shown) [Example 85, 2-{2-[4-(1-Methoxycarbonyl-ethoxycarbonylmethoxy)-phenoxy]-acetoxy}-propionic acid methyl ester]",two
